Test results from paper PMC10644263 (Biochemistry, 2020).
Several values for one entry are separate records, joined by “and”; a condition that tells them apart may be missing. Identical values can stand only once.

How the values were obtained:
HpMTAN = molecular target: T1, HpMTAN (Helicobacter pylori, UniProt Q9ZMY2); assay: Inhibition of HpMTAN; assay type: biochemical; settings: 37 °C
T1 sequence (Q9ZMY2 1-230): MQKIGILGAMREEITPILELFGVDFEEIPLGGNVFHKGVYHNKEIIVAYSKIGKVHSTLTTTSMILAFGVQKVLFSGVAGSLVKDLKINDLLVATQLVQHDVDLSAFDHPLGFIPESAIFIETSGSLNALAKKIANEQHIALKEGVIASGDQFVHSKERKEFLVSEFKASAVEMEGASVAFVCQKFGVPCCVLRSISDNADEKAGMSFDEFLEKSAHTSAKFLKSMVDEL

SaMTAN = molecular target: T2, SaMTAN (Staphylococcus aureus, UniProt Q5HFG2); assay: Inhibition of SaMTAN; assay type: biochemical; settings: 37 °C, compared with MTDIA
T2 sequence (Q5HFG2 1-228): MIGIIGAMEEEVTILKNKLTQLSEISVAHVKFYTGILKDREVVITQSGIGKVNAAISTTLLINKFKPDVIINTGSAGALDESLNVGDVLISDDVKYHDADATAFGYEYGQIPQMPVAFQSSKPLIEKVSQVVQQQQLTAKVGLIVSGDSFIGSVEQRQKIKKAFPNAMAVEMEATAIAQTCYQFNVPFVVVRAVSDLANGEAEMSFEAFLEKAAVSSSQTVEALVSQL

SMILES	improvement of Ki/affinity relative to MTDIA for HpMTAN (HpMTAN; compared with MTDIA) [fold]	improvement of Ki relative to MTDIA for SaMTAN (SaMTAN) [fold]	Ki (HpMTAN; read-out: Ki (dissociation constant) for HpMTAN)
Nc1ncnc2c(CN3C[C@H](CSCCOCCO)[C@@H](O)C3)c[nH]c12 [Compound 2]	14	81	
CSC[C@H]1CN(Cc2c[nH]c3c(N)ncnc23)C[C@@H]1O [MTDIA, Methylthio-DADMe-Immucillin-A]			1 nM and 1.25 nM
